Data reported in publication PMC5330855 (Biochemistry, 2017).

Columns and labels:
hhIYD [1] = target: T1, hhIYD (Haliscomenobacter hydrossis, UniProt F4KU78); assay: Quenching of FMNox fluorescence, ligand binding to hhIYD
T1 sequence (F4KU78 1-222): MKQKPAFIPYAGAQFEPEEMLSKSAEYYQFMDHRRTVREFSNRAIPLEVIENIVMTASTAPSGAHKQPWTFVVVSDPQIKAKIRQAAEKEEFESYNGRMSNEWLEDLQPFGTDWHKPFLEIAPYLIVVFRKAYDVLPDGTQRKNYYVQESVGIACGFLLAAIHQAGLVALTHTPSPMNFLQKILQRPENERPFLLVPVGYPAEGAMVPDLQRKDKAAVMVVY

IYD = details: cited from earlier work
hhIYD [2] = target: T1, hhIYD; format: biochemical
hhIYD [3] = target: T1, hhIYD; assay: Anaerobic reduction of hhIYD by xanthine and xanthine oxidase; format: biochemical; details: hhIYD 20 μM; F-Tyr 500 μM or 2IP 800 μM
human IYD = target: T2, human IYD (Homo sapiens, UniProt Q6PHW0); assay: Catalytic deiodination by human IYD; format: biochemical
T2 sequence (Q6PHW0 with tags, fused parts or gaps): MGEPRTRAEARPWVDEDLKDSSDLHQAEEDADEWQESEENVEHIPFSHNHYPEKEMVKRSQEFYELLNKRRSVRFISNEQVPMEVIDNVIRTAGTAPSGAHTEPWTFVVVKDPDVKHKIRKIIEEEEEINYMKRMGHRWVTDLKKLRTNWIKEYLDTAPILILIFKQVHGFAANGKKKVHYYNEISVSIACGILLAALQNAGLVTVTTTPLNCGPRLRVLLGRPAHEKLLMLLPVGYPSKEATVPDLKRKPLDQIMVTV

[4] = Intrinsic reactivity of free cofactor FMNhq with 2IP; format: biochemical; details: FMN 2.5 μM, 2IP 5 mM, dithionite 0.5% w/v, 2 h incubation; threshold ~ 3 nmol

Compound: N[C@@H](Cc1ccc(O)c(F)c1)C(=O)O [F-Tyr, 3-fluoro-L-tyrosine, reference compound]
- Kd (hhIYD [1]): 46 ± 2 µM

Compound: O-(4-hydroxy-3,5-diiodophenoxy)-3,5-diiodo-L-tyrosine [Thyroxine]
- dehalogenation by IYD (IYD): not dehalogenated by IYD

Compound: Nc1ccc(O)c(I)c1 [4A2IP, 4-amino-2-iodophenol]
- Kd larger than that for 2IP (hhIYD [1]; hhIYD): 40%
- kcat/Km greater than the parent 2IP (hhIYD [2]; hhIYD): ~6 fold

Compound: Oc1ccccc1I [2IP, 2-iodophenol]
- accumulation of the FMNsq intermediate during reduction (hhIYD [3]): did not detectably promote an accumulation of the FMNsq intermediate
- increase in affinity for hhIYD relative to human IYD (hhIYD [1]; hhIYD relative to human IYD): ~ 20 fold
- Km greater than that for I-Tyr (human IYD): 560 fold
- kcat less than that for I-Tyr (human IYD): 26 fold
- phenol formed with free FMN [4]: no phenol was detected

Compound: O=C(O)c1ccc(O)c(I)c1 [2IPCOOH, 4-hydroxy-3-iodobenzoic acid]
- Km larger than that for 2IP (hhIYD [2]; hhIYD): 75%

Compound: N#Cc1ccc(O)c(I)c1 [2IPCN, 4-cyano-2-iodophenol]
- Kd lower than that of 2IP (hhIYD [1]; hhIYD): ~50 fold
- deiodination by the bacterial deiodinase (hhIYD [2]; hhIYD): not detectably deiodinated

Compound: N[C@@H](Cc1ccc(O)c(I)c1)C(=O)O [I-Tyr, 3-iodo-L-tyrosine, reference compound]
- weaker affinity for hhIYD than human IYD (hhIYD [1]; hhIYD relative to human IYD): ~ 90 fold
- increase in kcat/Km, hhIYD relative to human IYD (hhIYD [2]; hhIYD versus human IYD): 16 fold
- Km greater than Kd (human IYD): > 80 fold
- kcat/Km larger than that measured for I2-Tyr (human IYD; I2-Tyr by 125I-iodide release assay): 50%
